Source: ChEMBL document CHEMBL3632533, “O-Benzoyl pyridine aldoxime and amidoxime derivatives: novel efficient DNA photo-cleavage agents” (Medchemcomm, 2015)
The source made the active and inactive calls. The rule behind the calls is not given here.

How the values were obtained:
[1] = test system: Enterobacteria phage lambda; assay: Induction of Lambda phage supercoiled circular pBluescript KS II DNA cleavage assessed as single-stranded nick formation at 1000 uM preincubated for 30 mins followed by UV light irradiation under aerobic condition measured after 15 mins by agarose gel electrophoresis
[2] = test system: Enterobacteria phage lambda; assay: Induction of Lambda phage supercoiled circular pBluescript KS II DNA cleavage assessed as single-stranded nick formation at 500 uM preincubated for 30 mins followed by UV light irradiation under aerobic condition measured after 15 mins by agarose gel electrophoresis
[3] = test system: Enterobacteria phage lambda; assay: Induction of Lambda phage supercoiled circular pBluescript KS II DNA cleavage assessed as single-stranded nick formation at 100 uM preincubated for 30 mins followed by UV light irradiation under aerobic condition measured after 15 mins by agarose gel electrophoresis
[4] = test system: Enterobacteria phage lambda; assay: Induction of Lambda phage supercoiled circular pBluescript KS II DNA cleavage incubated for 30 mins by agarose gel electrophoresis in absence of UV light irradiation
[5] = test system: Enterobacteria phage lambda; assay: Induction of Lambda phage supercoiled circular pBluescript KS II DNA cleavage assessed as double-stranded nick formation at 1000 uM preincubated for 30 mins followed by UV light irradiation under aerobic condition measured after 15 mins by agarose gel electrophoresis
[6] = test system: Enterobacteria phage lambda; assay: Induction of Lambda phage supercoiled circular pBluescript KS II DNA cleavage assessed as single-stranded nick formation at 10 uM preincubated for 30 mins followed by UV light irradiation under aerobic condition measured after 15 mins by agarose gel electrophoresis
[7] = test system: Enterobacteria phage lambda; assay: Induction of Lambda phage supercoiled circular pBluescript KS II DNA cleavage assessed as double-stranded nick formation at 10 uM preincubated for 30 mins followed by UV light irradiation under aerobic condition measured after 15 mins by agarose gel electrophoresis
[8] = test system: Enterobacteria phage lambda; assay: Induction of Lambda phage supercoiled circular pBluescript KS II DNA cleavage assessed as single-stranded nick formation at 1 uM preincubated for 30 mins followed by UV light irradiation under aerobic condition measured after 15 mins by agarose gel electrophoresis
[9] = test system: Enterobacteria phage lambda; assay: Induction of Lambda phage supercoiled circular pBluescript KS II DNA cleavage assessed as double-stranded nick formation at 100 uM preincubated for 30 mins followed by UV light irradiation under aerobic condition measured after 15 mins by agarose gel electrophoresis
[10] = test system: Enterobacteria phage lambda; assay: Induction of Lambda phage supercoiled circular pBluescript KS II DNA cleavage preincubated for 30 mins followed by UV light irradiation under aerobic condition measured after 15 mins by agarose gel electrophoresis
[11] = test system: Enterobacteria phage lambda; assay: Induction of Lambda phage supercoiled circular pBluescript KS II DNA cleavage assessed as single-stranded nick formation at 100 uM preincubated for 30 mins followed by UV light irradiation measured after 15 mins by agarose gel electrophoresis in presence of argon
[12] = test system: Enterobacteria phage lambda; assay: Induction of Lambda phage supercoiled circular pBluescript KS II DNA cleavage assessed as double-stranded nick formation at 500 uM preincubated for 30 mins followed by UV light irradiation under aerobic condition measured after 15 mins by agarose gel electrophoresis
[13] = test system: Enterobacteria phage lambda; assay: Induction of Lambda phage supercoiled circular pBluescript KS II DNA cleavage assessed as single-stranded nick formation at 100 uM preincubated for 30 mins followed by UV light irradiation under aerobic condition measured after 15 mins by agarose gel electrophoresis in presence of D2O
[14] = test system: Enterobacteria phage lambda; assay: Induction of Lambda phage supercoiled circular pBluescript KS II DNA cleavage assessed as single-stranded nick formation at 100 uM preincubated for 30 mins followed by UV light irradiation under aerobic condition measured after 15 mins by agarose gel electrophoresis in presence of NaN3
[15] = test system: Enterobacteria phage lambda; assay: Induction of Lambda phage supercoiled circular pBluescript KS II DNA cleavage assessed as double-stranded nick formation at 100 uM preincubated for 30 mins followed by UV light irradiation measured after 15 mins by agarose gel electrophoresis in presence of argon
[16] = test system: Enterobacteria phage lambda; assay: Induction of Lambda phage supercoiled circular pBluescript KS II DNA cleavage assessed as double-stranded nick formation at 1 uM preincubated for 30 mins followed by UV light irradiation under aerobic condition measured after 15 mins by agarose gel electrophoresis
[17] = test system: Enterobacteria phage lambda; assay: Induction of Lambda phage supercoiled circular pBluescript KS II DNA cleavage assessed as double-stranded nick formation at 100 uM preincubated for 30 mins followed by UV light irradiation under aerobic condition measured after 15 mins by agarose gel electrophoresis in presence of 20% DMSO
[18] = test system: Enterobacteria phage lambda; assay: Induction of Lambda phage supercoiled circular pBluescript KS II DNA cleavage assessed as single-stranded nick formation at 100 uM preincubated for 30 mins followed by UV light irradiation under aerobic condition measured after 15 mins by agarose gel electrophoresis in presence of 20% DMSO
[19] = test system: Enterobacteria phage lambda; assay: Induction of Lambda phage supercoiled circular pBluescript KS II DNA cleavage assessed as double-stranded nick formation at 100 uM preincubated for 30 mins followed by UV light irradiation under aerobic condition measured after 15 mins by agarose gel electrophoresis in presence of D2O

Activity [1] [%]	Activity [2] [%]	Activity [3] [%]	Activity [4]	Activity [5] [%]	Activity [8] [%]	Activity [9] [%]	SMILES	further results
0	6	0	inactive				CC(=O)O/N=C(\N)c1cccnc1	
50		75	inactive	50	25	7	N/C(=N\OC(=O)c1ccc([N+](=O)[O-])cc1)c1ccncc1	Activity [6]: Active; Activity [7]: Active
25	25	5	inactive				N=C(NOC(=O)c1ccccc1)c1cccnc1	
36	27	0	inactive				COc1ccc(C(=O)O/N=C(\N)c2cccnc2)cc1	
86		83	inactive	7	46	10	O=C(O/N=C/c1ccccn1)c1ccc([N+](=O)[O-])cc1	
35	29	0	inactive				COc1ccc(C(=O)O/N=C/c2cccnc2)cc1	
64	75	81	inactive	36	56	4	NC(=NOC(=O)c1ccc([N+](=O)[O-])cc1)c1cccnc1	Activity [11]: 86%; Activity [12]: 2%; Activity [13]: 28%; Activity [6]: Active; Activity [14]: 16%; Activity [15]: 6%; Activity [7]: Active; Activity [16]: 4%; Activity [17]: 5%; Activity [18]: 83%
72	38	39	inactive	1			O=C(O/N=C/c1cccnc1)c1ccccc1	
67		87	inactive	33	28	9	O=C(O/N=C/c1ccncc1)c1ccc([N+](=O)[O-])cc1	
73		85	inactive	20	70	10	NC(=NOC(=O)c1ccc([N+](=O)[O-])cc1)c1ccccn1	Activity [6]: Active; Activity [7]: Active; Activity [16]: 15%
84	81	84	inactive	13	59	2	O=C(O/N=C/c1cccnc1)c1ccc([N+](=O)[O-])cc1	Activity [11]: 85%; Activity [12]: 2%; Activity [13]: 85%; Activity [14]: 23%; Activity [15]: 9%; Activity [19]: 8%; Activity [17]: 20%; Activity [18]: 75%

SMILES	Activity [1] [%]	Activity [2] [%]	Activity [3] [%]	Activity [4]	Activity [5] [%]	Activity [8] [%]	Activity [9] [%]	further results
O/N=C/c1cccnc1				inactive				Activity [10]: inactive
N/C(=N\O)c1cccnc1				inactive				Activity [10]: inactive
